{
  "source": "patent US11541022B2",
  "about": "“Methods and compositions for the treatment of neurological diseases and syndromes of aging” (priority 2018, dated 2023)",
  "key": {"[1]": {"assay": "Trial of L-Dopa with C60 and mitochondrial fusion", "format": "in vivo, human", "conditions": "one subject", "method": "In some embodiments, the amino acid L-Dopa is administered with a mitochondrial fusion promoter to stimulate the proliferation of SCs. In some embodiments it is used with C60 and/or with a demethylase promoter. In some embodiments it is used with glutamine. […] Treatment with L-Dopa may be combined with 5-HTP and/or SRIs for a full spectrum effect."}, "[2]": {"system": "epigenetic age (methylation patterns of gene markers from buccal cells)", "assay": "Epigenetic age tests in AR (Age Regression) trials of the stem cell regime", "format": "in vivo, human", "excerpt": "Test subject's epigenetic age results are summarized below in the table of AR (Age Regression) trials: The second column of Table 1 reports the difference between epigenetic and chronological age; the third column reports the weeks of treatment, wherein there was at least one fusion cycle per week and generally two […] cycles initially, decreasing to the end of this period to one treatment every week or two; the fourth column reports the total elapsed time from baseline; the fifth column reports the regimes used; and the sixth column reports the nutritional cocktails. Several companies are presently offering epigenetic tests that purport to give epigenetic age that generally closely correlates with chronological age. The subject had taken a test offered by Osiris Green two months prior beginning treatment. […] This was in spite of their prior use of C60 for several years outside of the regime. […] This was far outside the expected range. […] It appears that using a demethylase promoter during stem cell stimulation produces a far more rapid decline in epigenetic age, as removing aberrant methylation is easiest during cell division. The epigenetic testing labs used—Osirus Green, TrueMe, EpiAging and Epimorphy—all used different sets of genes, yet results were within a few years for samples taken at the same time. […] It was initially hypothesized that any negative impact would be minimal if used only with mitochondrial switches, but the telomeres of rapidly dividing TACs were likely also lengthened, and this blocked TAC senescence and replacement. Since TACs divide frequently, they also experience rapid epigenetic aging, thus somatic cells derived from TACs with telomeres extended by an agonist reach higher epigenetic age that would ordinarily be possible."}, "[3]": {"conditions": "cited from earlier work; for half-life: stated in words"}, "[4]": {"conditions": "mice, intraperitoneal injection; cited from earlier work"}},
  "data": [
    {"smiles": "N[C@@H](Cc1ccc(O)c(O)c1)C(=O)O", "note": "[L-Dopa, Levodopa]", "values": [
      {"measurement": "tremors", "setting": "[1]", "result": "eliminated tremors"}
    ]},
    {"smiles": "CC(C)(O)[C@@H]1CC[C@](C)([C@H]2[C@@H](O)C[C@@]3(C)[C@@H]4C[C@H](O)[C@H]5C(C)(C)[C@@H](O)CC[C@@]56C[C@@]46CC[C@]23C)O1", "note": "[cycloasragenol, cycloastragenol]", "values": [
      {"measurement": "effect on epigenetic age", "setting": "[2]; telomere agonist every fourth treatment", "result": "did not show the same negative effects"},
      {"measurement": "effect on epigenetic age", "setting": "[2]; telomere agonist with every C60/mitochondrial switches treatment", "result": "rapidly increase epigenetic age"}
    ]},
    {"smiles": "O=C1c2c(O)cc(O)cc2O[C@H](c2cc(O)c(O)c(O)c2)[C@H]1O", "note": "[dihydromyricetin, Dihydromyricetin]", "values": [
      {"measurement": "time to elimination from the body", "setting": "[3]; Liu et al. 2019", "result": "about 12 hours"}
    ]},
    {"smiles": "Oc1ccc(C=Cc2cc(O)cc(O)c2)cc1", "note": "[resveratrol]", "values": [
      {"measurement": "epigenetic age below chronological age", "setting": "[2]; 300 mg of resveratrol one hour before C60, one treatment per week for 8 weeks", "result": 14.6, "unit": "years"}
    ]},
    {"smiles": "CCCCCCCCCCCCCCCCCC(=O)O", "note": "[stearic acid]", "values": [
      {"measurement": "half-life", "setting": "[3]", "result": "ten to twelve hours"}
    ]},
    {"smiles": "C[S+]([O-])CCCCN=C=S", "note": "(stereo not shown) [sulforaphane]", "values": [
      {"measurement": "time to peak in the bloodstream", "setting": "[3]; in vivo", "result": "≥ 15", "unit": "min"},
      {"measurement": "half-life", "setting": "[3]", "result": "about an hour"},
      {"measurement": "duration of activity", "setting": "[4]", "result": "approximately sixty minutes"},
      {"measurement": "time to maximum activity", "setting": "[4]", "result": 15, "unit": "min"}
    ]}
  ]
}
